Laboratory results taken from the supplement of paper PMC10307832.

What follows are cell lines tested with O=C(/C=C/c1ccccc1)NC(NC(=S)Nc1cccc2cccnc12)C(Cl)(Cl)Cl [Salubrinal] (assay: relative viability (nuclei count vs DMSO), 5 days (fraction); higher = more cells survive). Conditions: 8 µM.
Procedure, shortened: (§1)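 Lung cancer cell lines in 1536-well plates were kept overnight at 37 °C, then pinned with five library-drug doses (not always all listed) spaced by √10 on vehicle-anchored plates. After 5 days without medium change, cells were fixed, permeabilised and Hoechst-stained in one step, imaged at 4×, and nuclei were counted with MetaXpress. Viability is treated-well nuclei divided by vehicle-well nuclei, taken as the median over plates. Plates passed only with control CV below 25% and at least one doubling.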

Row | Cell Line | relative viability
1 | PC-3 [JPC-3] | 0.969

The cell lines below were run with Cc1ccc2nc(NCCN)c3ncc(C)n3c2c1 in the same assay as above. Conditions: 0.04 µM.
Procedure, shortened: as §1

Row | Cell Line | relative viability
2 | SK-LU-1 | 1.06
3 | NCI-H1395 | 0.959
4 | 201T | 1.03
5 | NCI-H1915 | 0.958
6 | HCC-827 | 1.07
7 | LXF-289 | 0.985
8 | NCI-H23 | 1.06
9 | NCI-H1299 | 1.01
10 | NCI-H647 | 1.13
11 | CAL-12T | 0.984
12 | NCI-H1651 | 1.02
13 | EPLC-272H | 1.01
14 | NCI-H2228 | 1.15
15 | NCI-H1792 | 0.984
16 | NCI-H1355 | 1.05
17 | NCI-H3122 | 0.998
18 | NCI-H1437 | 1.02
19 | NCI-H1755 | 1.07
20 | NCI-H2023 | 1.06
21 | HCC-15 | 1
22 | PC-14 | 1.04
23 | EKVX | 1.07
24 | LC-2-ad | 0.991
25 | NCI-H1563 | 1.02
26 | NCI-H1975 | 1
27 | RERF-LC-KJ | 1.03
28 | ABC-1 | 0.987
29 | NCI-H1944 | 0.985
30 | NCI-H650 | 1.03
31 | PC-3 [JPC-3] | 1.01

Same assay, conditions: 0.1265 µM

Row | Cell Line | relative viability
32 | SK-LU-1 | 1
33 | NCI-H1395 | 0.941
34 | 201T | 0.993
35 | NCI-H1915 | 0.998
36 | HCC-827 | 1.04
37 | LXF-289 | 0.966
38 | NCI-H23 | 1.11
39 | NCI-H1299 | 0.986
40 | NCI-H647 | 0.993
41 | CAL-12T | 0.981
42 | NCI-H1651 | 0.95
43 | EPLC-272H | 1.13
44 | NCI-H2228 | 0.992
45 | NCI-H1792 | 0.987
46 | NCI-H1355 | 0.983
47 | NCI-H3122 | 0.988
48 | NCI-H1437 | 0.982
49 | NCI-H1755 | 0.979
50 | NCI-H2023 | 0.935
51 | HCC-15 | 1.09
52 | PC-14 | 0.963
53 | EKVX | 0.889
54 | LC-2-ad | 1.01
55 | NCI-H1563 | 0.909
56 | NCI-H1975 | 0.951
57 | RERF-LC-KJ | 0.996
58 | ABC-1 | 1.01
59 | NCI-H1944 | 0.96
60 | NCI-H650 | 1.03
61 | PC-3 [JPC-3] | 1.05

Same assay, conditions: 0.4 µM

Row | Cell Line | relative viability
62 | SK-LU-1 | 1.03
63 | NCI-H1395 | 0.844
64 | 201T | 0.978
65 | NCI-H1915 | 0.705
66 | HCC-827 | 1.02
67 | LXF-289 | 1.01
68 | NCI-H23 | 0.853
69 | NCI-H1299 | 0.969
70 | NCI-H647 | 0.934
71 | CAL-12T | 0.976
72 | NCI-H1651 | 0.991
73 | EPLC-272H | 0.992
74 | NCI-H2228 | 1.03
